Assay results taken from US12240846B2 (Enliven Inc., priority 2020, dated 2025).

Columns and labels:
[1] = test system: K562 cells; assay: K562 cell proliferation assay (CellTiter-Glo); format: cell-based; conditions: Homo sapiens, K562 cell viability, 72 hours, read-out: Cell Line (IC50, nM) K562
Experimental: (§1) K562 and HL60 Cell Proliferation Assay
(§2) K562 and HL60 cells, cultured in Iscove's Modified Dulbecco's Media (IMDM) supplemented with 10% FBS, were harvested at 50-80% confluency and plated at 2,000 cells per well (K562) or 1,500 cells per well (HL60) in 384-well tissue culture plates. A subset of wells contained media only (low control, LC). […] The plates were placed in a 37° C. incubator with 5% CO2 for 72 hours. Cell viability was measured using a CellTiter-Glo luminescent cell viability assay (Promega), which allows for relative quantification of metabolically active cells by luminescence-based measurements of intracellular ATP concentrations. Briefly, plates were removed from the incubator and equilibrated for 15 minutes at room temperature prior to the addition of 40 μL of CellTiter-Glo reagent. Plates were then incubated for 30 minutes at room temperature. Luminescence was measured using an EnSpire plate reader (Perkin Elmer). As noted above, luminescence values from wells with DMSO only or media without cells were used as high and low controls (HC and LC), respectively. Normalized percent viability was calculated as follows: percent viability=100×(Lumsample−LumLC)/(LumHC−LumLC).

[2] = biological target: T1, ABL1 (Homo sapiens, UniProt P00519); assay: Luminescence-based ABL kinase assay (300 μM ATP), ADP-Glo; format: biochemical
T1 construct: purchased Carna Biosciences
Excerpt: Compounds were serially diluted in DMSO. […] Luminescence signal positively correlates with kinase activity.

[3] = test system: HL60 cells; assay: HL60 cell proliferation assay (CellTiter-Glo); format: cell-based; conditions: Homo sapiens, HL-60, HL60 cell viability, 72 hours, read-out: Cell Line (IC50, nM) HL60
Experimental: as §1, §2

[4] = biological target: ABL1 (T315I) (Homo sapiens, UniProt P00519, T315I); assay: Luminescence-based ABL kinase assay (300 μM ATP), ADP-Glo; format: biochemical
Experimental: Kinase activity of ABL1 was measured using the ADP-Glo system (Promega), which measures formation of ADP using a luminescence-based method. Compounds were serially diluted in DMSO. 20 nL of compound or DMSO only (high control, HC) were added to a 384-well plate (OptiPlate-384. PerkinElmer) using an Echo550 liquid handler (Labcyte). 15 μL of kinase solution (10 mM MgCl2, 0.01% Brij-35, 2 mM DTT, 0.05% BSA, 1 mM EGTA, 50 mM HEPES pH 7.5, and 3.325 nM ABL1 [Carna Biosciences]) were added to each well of the 384-well plate containing the compounds. No enzyme control wells were included (low control, LC). The plate was incubated at room temperature for 30 minutes. 5 μL of a second solution containing 10 mM MgCl2, 0.01% Brij-35, 2 mM DTT, 0.05% BSA, 1 mM EGTA, 50 mM HEPES pH 7.5, 6 μM Peptide 2 (Perkin Elmer, Cat No 760346), and 1.2 mM ATP were added to each well to start the kinase reaction. The plate was incubated for 90 minutes at room temperature. 20 μL of ADP-Glo reagent (Promega) were then added to each well and the plate was incubated for 40 minutes at room temperature. 40 μL of kinase detection reagent (Promega) was added to each well and the plate was incubated for an additional 45 minutes at room temperature. During this step, ADP was converted to ATP, a substrate for luciferase, to produce luminescence signal. Luminescence was measured on an Envision plate reader (Perkin Elmer). Luminescence signal positively correlates with kinase activity. The percent kinase activity was calculated as follows: percent kinase activity=100×(Lumsample−LumLC)/(LumHC−LumLC). As noted above, DMSO only and no enzyme wells were used as high and low controls, respectively. IC50 values were calculated using the XLFit software.

| SMILES | IC50 [1] [nM] | IC50 [2] [nM] | IC50 [3] [nM] | IC50 [4] [nM] |
| --- | --- | --- | --- | --- |
| COc1c(-c2cc3cc(NC(=O)[C@@H]4C[C@@H]4F)ncc3n2C)ccc2[nH]cnc12 [Compound 29, (1S,2S)-2-fluoro-N-[2-(4-methoxy-1H-1,3-benzodiazol-5-yl)-1-methylpyrrolo[2,3-c]pyridin-5-yl]cyclopropane-1-carboxamide] | 258 | 52 | 800 | 22.2 |
| COc1nc(C)ncc1-c1cc2cc(NC(=O)[C@@H]3C[C@@H]3F)ncc2n1C [Compound 141, (1S,2S)-2-fluoro-N-[2-(4-methoxy-2-methylpyrimidin-5-yl)-1-methylpyrrolo[2,3-c]pyridin-5-yl]cyclopropane-1-carboxamide] | 381 | 316 | > 10000 | 1990 |
| COc1ncnc(OC)c1-c1cc2cc(NC(=O)C3CC3)ncc2n1C [Compound 118, N-[2-(4,6-dimethoxypyrimidin-5-yl)-1-methylpyrrolo[2,3-c]pyridin-5-yl]cyclopropanecarboxamide] | 71.4 | 35.3 | 929 | 108 |
| COc1cnnc(OC)c1-c1cc2cc(NC(=O)[C@@H]3C[C@@H]3F)ncc2n1C [Compound 107, (1S,2S)-N-[2-(3,5-dimethoxypyridazin-4-yl)-1-methylpyrrolo[2,3-c]pyridin-5-yl]-2-fluorocyclopropane-1-carboxamide] | 40.5 | 17.4 | 2550 | 94.6 |
| COc1ncc(F)c(OC)c1-c1cc2cc(NC(=O)[C@@H]3C[C@H]3CN(C)C)ncc2n1C (single isomer, unassigned) [Compound 130] | 108 | 37.3 | > 10000 | 58.1 |
| COc1ncc(F)c(OC)c1-c1cc2cc(NC(=O)NCCN3CCNCC3)ncc2n1C [Compound 82, 3-[2-(5-fluoro-2,4-dimethoxypyridin-3-yl)-1-methylpyrrolo[2,3-c]pyridin-5-yl]-1-[2-(piperazin-1-yl)ethyl]urea formic acid] | 125 | 31.6 | > 10000 | 88.1 |
| CCc1ncccc1-c1cc2cc(NC(=O)[C@@H]3C[C@@H]3F)ncc2n1C [Compound 112, (1S,2S)-N-[2-(2-ethylpyridin-3-yl)-1-methylpyrrolo[2,3-c]pyridin-5-yl]-2-fluorocyclopropane-1-carboxamide] | 1780 | 1320 | > 10000 | 564 |
| COc1ccccc1-c1c(C)c2cc(NC(=O)[C@@H]3C[C@@H]3F)ncc2n1C [Compound 43, (1S,2S)-2-fluoro-N-(2-(2-methoxyphenyl)-1,3-dimethyl-1H-pyrrolo[2,3-c]pyridin-5-yl)cyclopropane-1-carboxamide] | 317 | 50.2 | > 10000 | 24.7 |
| COc1ncc(Cl)cc1-c1cc2cc(NC(=O)[C@@H]3C[C@@H]3F)ncc2n1C [Compound 66, (1S,2S)-N-[2-(5-chloro-2-methoxypyridin-3-yl)-1-methylpyrrolo[2,3-c]pyridin-5-yl]-2-fluorocyclopropane-1-carboxamide] | 100 | 25.4 | 1750 | 68 |
| Cn1c(-c2cccnc2OC2CC2)cc2cc(NC(=O)[C@@H]3C[C@@H]3F)ncc21 [Compound 115, (1S,2S)-N-[2-(2-cyclopropoxypyridin-3-yl)-1-methylpyrrolo[2,3-c]pyridin-5-yl]-2-fluorocyclopropane-1-carboxamide] | 80.8 | 18.5 | 1550 | 469 |
| COc1cccc(C)c1-c1cc2cc(NC(=O)C3CC3)ncc2n1C [Compound 11, N-[2-(2-methoxy-6-methylphenyl)-1-methylpyrrolo[2,3-c]pyridin-5-yl]cyclopropanecarboxamide] | 0.421 | 13.8 | 182 | 38.6 |
| Cn1c(-c2cc(F)cnc2OC2CC2)cc2cc(NC(=O)[C@@H]3C[C@@H]3F)ncc21 [Compound 140, (1S,2S)-N-[2-(2-cyclopropoxy-5-fluoropyridin-3-yl)-1-methylpyrrolo[2,3-c]pyridin-5-yl]-2-fluorocyclopropane-1-carboxamide] | 291 | 95.8 | > 10000 | – |
| COc1ncnc(OC)c1-c1cc2cc(NC(=O)[C@@H]3CC3(F)F)ncc2n1C [Compound 136, (1S)-N-[2-(4,6-dimethoxypyrimidin-5-yl)-1-methylpyrrolo[2,3-c]pyridin-5-yl]-2,2-difluorocyclopropane-1-carboxamide] | 98.8 | – | 1200 | – |

More lines, in order of falling IC50 [1], values ahead:

| IC50 [1] [nM] | IC50 [2] [nM] | IC50 [3] [nM] | IC50 [4] [nM] | SMILES |
| --- | --- | --- | --- | --- |
| 700 | 200 | > 10000 | 2930 | COc1ccnc(C)c1-c1cc2cc(NC(=O)[C@@H]3C[C@@H]3F)ncc2n1C [Compound 86, (1S,2S)-2-fluoro-N-(2-(4-methoxy-2-methylpyridin-3-yl)-1-methyl-1H-pyrrolo[2,3-c]pyridin-5-yl)cyclopropane-1-carboxamide] |
| 576 | 207 | 4860 | 308 | COc1ncccc1-c1c(C)c2cc(NC(=O)[C@@H]3C[C@@H]3F)ncc2n1C [Compound 61, (1S,2S)-2-fluoro-N-(2-(2-methoxypyridin-3-yl)-1,3-dimethyl-1H-pyrrolo[2,3-c]pyridin-5-yl)cyclopropanecarboxamide] |
| 368 | 74.5 | > 10000 | 36 | COc1ccccc1-c1c(C)c2cc(NC(=O)[C@H]3C[C@H]3F)ncc2n1C [Compound 44, (1R,2R)-2-fluoro-N-[2-(2-methoxyphenyl)-1,3-dimethylpyrrolo[2,3-c]pyridin-5-yl]cyclopropane-1-carboxamide] |
| 314 | 84.4 | > 10000 | 366 | COc1ncnc(C)c1-c1cc2cc(NC(=O)[C@@H]3C[C@@H]3F)ncc2n1C [Compound 113, (1S,2S)-2-fluoro-N-[2-(4-methoxy-6-methylpyrimidin-5-yl)-1-methylpyrrolo[2,3-c]pyridin-5-yl]cyclopropane-1-carboxamide] |
| 257 | 77 | > 10000 | 546 | CCOc1nccc(C)c1-c1cc2cc(NC(=O)[C@@H]3C[C@@H]3F)ncc2n1C [Compound 114, (1S,2S)-N-[2-(2-ethoxy-4-methylpyridin-3-yl)-1-methylpyrrolo[2,3-c]pyridin-5-yl]-2-fluorocyclopropane-1-carboxamide] |
| 179 | – | 958 | – | COc1ncccc1-c1cc2cc(NC(=O)C3CC3)ncc2n1C [Compound 22, N-[2-(2-methoxypyridin-3-yl)-1-methylpyrrolo[2,3-c]pyridin-5-yl]cyclopropanecarboxamide] |
| 128 | 111 | 4270 | 83.7 | COc1ncc(F)cc1-c1c(C)c2cnc(NC(=O)[C@@H]3C[C@@H]3F)cc2n1C [Compound 57, (1S,2S)-2-fluoro-N-(2-(5-fluoro-2-methoxypyridin-3-yl)-1,3-dimethyl-1H-pyrrolo[3,2-c]pyridin-6-yl)cyclopropane-1-carboxamide] |
| 122 | 9.33 | 794 | 8.34 | Cc1c(O)cccc1-c1cc2cc(NC(=O)[C@@H]3C[C@@H]3F)ncc2n1C [Compound 24, (1S,2S)-2-fluoro-N-(2-(3-hydroxy-2-methylphenyl)-1-methyl-1H-pyrrolo[2,3-c]pyridin-5-yl)cyclopropane-1-carboxamide] |
| 113 | 48.3 | > 10000 | 107 | COc1ncnc(OC)c1-c1cc2cc(NC(=O)[C@@H]3C[C@H]3CN3CCN(C)CC3)ncc2n1C (single isomer, unassigned) [Compound 125] |
| 91.7 | 10.9 | 523 | 10.8 | COc1cccc(C)c1-c1cc2cc(NC(=O)[C@@H]3C[C@@H]3F)ncc2n1C [Compound 25, (1S,2S)-2-fluoro-N-[2-(2-methoxy-6-methylphenyl)-1-methylpyrrolo[2,3-c]pyridin-5-yl]cyclopropane-1-carboxamide] |
| 85.8 | 31.7 | 808 | 4.48 | COc1ccccc1-c1[nH]c2cc(NC(=O)[C@@H]3C[C@@H]3F)ncc2c1C [Compound 48, (1S,2S)-2-fluoro-N-[2-(2-methoxyphenyl)-3-methyl-1H-pyrrolo[3,2-c]pyridin-6-yl]cyclopropane-1-carboxamide] |
| 41.4 | 14.9 | > 10000 | 56.7 | COc1ncnc(OC)c1-c1cc2cc(NC(=O)[C@H]3C[C@@H]3CN3CCN(C)CC3)ncc2n1C (single isomer, unassigned) [Compound 124] |
